Reference: patent US12151028B2, “Drug delivery systems comprising solid solutions of weakly basic drugs” (Adare Pharmaceuticals, Inc., priority 2006, dated 2024)
Converted amounts (≈) assume the structure as drawn. Structures can show the parent of a compound that is named as a salt. Where two headings read alike, the source gives them in different places.

Columns and labels:
[1] = physchem
[2] = Intrinsic dissolution rate measurements; assay type: physicochemical; details: crystalline polymorphs (Polymorph I, Polymorph II)
Experimental: Intrinsic dissolution rates were determined for two different polymorphs of lercanidipine hydrochloride as well as amorphous materials (e.g., amorphous drug and 1:2 solid solutions of lercanidipine hydrochloride with Methocel E5 and Kollidon VA 64).

[3] = Turbidity measurements (transmittance of drug/polymer solutions in pH 6.0 buffer); assay type: physicochemical; details: buffer pH 6.0 containing Kollidon VA 64, Methocel E5, PEG 6000, cyclodextrin or Kollidon 14 PF; drug:polymer 1:2
Experimental: A concentrated solution (3 mL) of lercanidipine hydrochloride in acetone (0.5 mg/ml) was added to 200 mL of a buffer solution (pH 6.0) containing Kollidon VA 64, Methocel E5 (hypromellose), polyethylene glycol (PEG 6000), cyclodextrin or Kollidon 14 PF (polyvinyl pyrrolidone) at the ratio of 1:2 by weight with respect to the polymer.

Q: What does the source list for `Cc1nccn1CC1CCc2c(c3ccccc3n2C)C1=O` (centres unmarked) [Ondansetron Hydrochloride, ondansetron hydrochloride]?
A: Solubility of Ondansetron Hydrochloride in Fumaric Acid (fumaric acid 0.25 mg/mL, start pH 2.79, end pH 2.75): 26200 µg/mL; Solubility of Ondansetron Hydrochloride in Fumaric Acid (pH 2.13): 26900 µg/mL; Solubility of Ondansetron Hydrochloride in Fumaric Acid (pH 3.49): about 26 mg/mL

Q: For `O=C1CN=C(c2ccccc2Cl)c2cc([N+](=O)[O-])ccc2N1` [Clonazepam, clonazepam], which solubility ([1]; pH 2.84, aqueous buffer) is on record?
A: 29 µg/mL (≈ 91.9 µM)

Q: And the solubility ([1]; pH 2.92, aqueous buffer)?
A: 23 µg/mL (≈ 72.9 µM)

Q: What about the solubility ([1]; pH 3, aqueous buffer) of the same compound?
A: 22 µg/mL (≈ 69.7 µM)

Q: What about the solubility ([1]; pH 3.32, aqueous buffer) of the same compound?
A: 21 µg/mL (≈ 66.5 µM)

Q: And the solubility ([1]; pH 4.21, aqueous buffer)?
A: 18 µg/mL (≈ 57 µM)

Q: What about the solubility ([1]; pH 6.39, aqueous buffer) of the same compound?
A: 18 µg/mL (≈ 57 µM)

Q: For `COC(=O)C1=C(C)NC(C)=C(C(=O)OC(C)(C)CN(C)CCC(c2ccccc2)c2ccccc2)C1c1cccc([N+](=O)[O-])c1` (centres unmarked) [lercanidipine hydrochloride], which “Intrinsic dissolution rate and extent of dissolution” value [2] is on record?
A: poor dissolution rates

Q: What about the “Stability of drug solution against crystallization (turbidity)” value [3] of the same compound?
A: improved stability
